SMILES strings stand for the structures.

The assay deals with T1, rat peripheral BZD receptor (Rattus norvegicus, UniProt P16257).
T1 construct: rat heart membranes and [3H]PK 11195; from tissue; host or cells: rat heart membrane homogenates
In words: radioligand binding test, [3H]PK 11195, rat heart membranes. Particulars: 10 μM test compound; 0.2 nM [3H]PK 11195; rat heart membrane homogenates; 15 min at 22° C. On the procedure:
Evaluation of the in vitro affinity of test substances for the rat peripheral BZD receptor was performed according to Le Fur et al. (1983). Life Sci., 33: 449-457. For this purpose, rat heart membranes and [3H]PK 11195 (1-(2-chlorophenyl)-N-methyl-N-(1-methylpropyl)-3-isoquinolinecarboxamide) were used in a radioligand binding test system.
In detail, membrane homogenates of heart (20 μg protein) are incubated for 15 min at 22° C. with 0.2 nM [3H]PK 11195 in the absence or presence of the test compound in a buffer containing 50 mM Tris-HCl (pH 7.4) and 10 mM MgCl2 (96-well plate format). Compound addition is 100× solution in solvent. Nonspecific binding is determined in the presence of 10 μM PK 11195. Following incubation, the samples are filtered rapidly under vacuum through glass fiber filters (GF/B, Packard) presoaked with 0.3% PEI and rinsed several times with ice-cold 50 mM Tris-HCl using a 96-sample cell harvester (Unifilter, Packard). The filters are dried, then counted for radioactivity in a scintillation counter (Topcount, Packard) using a scintillation cocktail (Microscint 0, Packard). The results are expressed as a percent inhibition of the control radioligand specific binding.
The standard reference compound is PK 11195, which is tested in each experiment concurrently with the test compounds.
For analysis, the specific ligand binding to the receptors is defined as the difference between the total binding and the nonspecific binding determined in the presence of an excess of unlabelled ligand. The results are expressed as a percent of control specific binding ((measured specific binding/control specific binding)×100) obtained in the presence of the test compounds.
For the compound `Cc1c(C(=O)NCc2cccc(F)c2)c(C(C)C)nc2cc(C(F)(F)F)ccc12` [compound 1, N-[(3-Fluorophenyl)-methyl]-2-isopropyl-4-methyl-7-(trifluoromethyl)-quinoline-3-carboxylic acid amide], the inhibition – broadly, the relative decrease from the control value, in per cent – at 10 µM came out at 87%. `CCSc1nc(N2CCOCC2)cc(C)c1C(=O)NCCCC(C)(C)C` [compound 2, N-(4,4-Dimethyl-pentyl)-2-ethylsulfanyl-4-methyl-6-morpholin-4-yl-pyridine-3-carboxylic acid amide]: the inhibition at 10 µM is 43%.

With `CCSc1nc(N2CCOCC2)cc(C)c1C(=O)NCc1ccc(Cl)cc1` [compound 3, N-[(4-Chlorophenyl)-methyl]-2-ethylsulfanyl-4-methyl-6-morpholin-4-yl-pyridine-3-carboxylic acid amide], the inhibition at 10 µM worked out at 91%.

On to `COc1nc(N2CCOCC2)cc(C)c1C(=O)NCc1ccc(Cl)cc1` [compound 4, N-[(4-Chlorophenyl)-methyl]-2-methoxy-4-methyl-6-morpholin-4-yl-pyridine-3-carboxylic acid amide], for which the inhibition at 10 µM was 49%.

As for `O=C(NCc1ccc(F)cc1)c1cccnc1SCCC(F)(F)c1ccc(F)cc1` [compound 5, 2-[[3,3-Difluoro-3-(4-fluorophenyl)-propyl]sulfanyl]-N-[(4-fluorophenyl)-methyl]-pyridine-3-carboxylic acid amide], the inhibition at 10 µM was 102%. Next, `O=C(NCC1CC2CCC1C2)c1cccnc1SCCC(F)(F)c1ccc(F)cc1` (stereo not drawn) [compound 6, N-(5-Bicyclo[2.2.1]heptanyl-methyl)-2-[[3,3-difluoro-3-(4-fluorophenyl)-propyl]sulfanyl]-pyridine-3-carboxylic acid amide]: 99%; `Cc1cc(N2CCOCC2)nc(C2CC2)c1C(=O)NCc1ccc(Cl)cc1` [compound 7, N-[(4-Chlorophenyl)-methyl]-2-cyclopropyl-4-methyl-6-morpholin-4-yl-pyridine-3-carboxylic acid amide]: 57%; `COc1nc(N2CCOCC2)cc(C)c1C(=O)NCc1cccc(F)c1` [compound 8, N-[(3-Fluorophenyl)-methyl]-2-methoxy-4-methyl-6-morpholin-4-yl-pyridine-3-carboxylic acid amide]: 103%. In the case of `COc1nc(N2CCOCC2)cc(C)c1C(=O)NCc1ccc(F)cc1` [compound 9, N-[(4-Fluorophenyl)-methyl]-2-methoxy-4-methyl-6-morpholin-4-yl-pyridine-3-carboxylic acid amide], the inhibition at 10 µM came to 53%. In the case of `CCCc1nc(N2CCOCC2)cc(C)c1C(=O)NCc1cccc(F)c1` [compound 10, N-[(3-Fluorophenyl)-methyl]-4-methyl-6-morpholin-4-yl-2-propyl-pyridine-3-carboxylic acid amide], the inhibition at 10 µM came out at 91%.

In the case of `Cc1cc(N2CCOCC2)nc(C2CC2)c1C(=O)NCc1ccc(F)cc1` [compound 11, 2-Cyclopropyl-N-[(4-fluorophenyl)-methyl]-4-methyl-6-morpholin-4-yl-pyridine-3-carboxylic acid amide], the inhibition at 10 µM turned out to be 87%. Next, `CC(C)CCNC(=O)c1cccnc1SCCC(F)(F)c1ccc(F)c(F)c1` [compound 12, 2-[[3-(3,4-Difluoro-phenyl)-3,3-difluoro-propyl]-sulfanyl]-N-(3-methyl-butyl)-pyridine-3-carboxylic acid amide]: 97%. The same measure for `CCSc1nc(N2CCOCC2)cc(C)c1C(=O)NCc1cccc(F)c1` [compound 13, 2-Ethylsulfanyl-N-[(3-fluorophenyl)-methyl]-4-methyl-6-morpholin-4-yl-pyridine-3-carboxylic acid amide]: 95%. Next, `Cc1cc(N2CCOCC2)nc(C2CC2)c1C(=O)NCc1cccc(F)c1` [compound 15, 2-Cyclopropyl-N-[(3-fluorophenyl)-methyl]-4-methyl-6-morpholin-4-yl-pyridine-3-carboxylic acid amide]: 90%; `CC(C)CCNC(=O)c1cccnc1SCCC(F)(F)c1ccc(F)cc1` [compound 16, 2-[[3,3-Difluoro-3-(4-fluorophenyl)-propyl]sulfanyl]-N-(3-methyl-butyl)-pyridine-3-carboxylic acid amide]: 96%.
